Source: patent US12642271B2, “Active compound combinations comprising a (thio)carboxamide derivative and a fungicidal compound” (Bayer CropScience Aktiengesellschaft, priority 2011, dated 2026)
Several values for one entry are separate records, joined by “and”; a condition that tells them apart may be missing. Equal entries are not always repeated. Where two headings read alike, the source gives them in different places.

Tests used:
[1] = system: Leptosphaeria nodorum; experiment: Leptosphaeria nodorum test (wheat)/preventive; type: in vivo
[2] = system: Sphaerotheca fuliginea; experiment: Sphaerotheca test (cucumbers)/preventive; type: in vivo
[3] = system: Septoria tritici; experiment: Septoria tritici-test (wheat)/preventive; type: in vivo; conditions: preventive, evaluated 21 days after inoculation
[4] = system: Fusarium nivale (var. majus); experiment: Fusarium nivale (var. majus)-test (wheat)/preventive; conditions: for pest or weed control at 20 ppm / pest or weed control at 80 ppm / pest or weed control at 10 ppm / pest or weed control at 40 ppm: Microdochium nivale, in Triticum aestivum, 120 h; for pest or weed control at 20 ppm: 20 ppm a.i.; for pest or weed control at 80 ppm: 80 ppm a.i.
Method: After the spray coating has been dried, the plants are slightly injured by using a sandblast and afterwards they are sprayed with a conidia suspension of Fusarium nivale (var. majus).
The plants are placed in the greenhouse under a translucent incubation cabinet at a temperature of approximately 10° C. and a relative atmospheric humidity of approximately 100%.
The test is evaluated 5 days after the inoculation.

[5] = system: Puccinia triticina; experiment: Puccinia triticina-test (wheat)/preventive; type: in vivo; conditions: preventive, evaluated 8 days after inoculation
[6] = system: Blumeria graminis f.sp. hordei; experiment: Blumeria test (barley)/preventive; type: in vivo
[7] = system: Venturia inaequalis; experiment: Venturia test (apples)/preventive; conditions: for pest or weed control at 1 ppm: 1 ppm a.i.
Method: After the spray coating has dried on, the plants are inoculated with an aqueous conidia suspension of the causal agent of apple scab (Venturia inaequalis) and then remain for 1 day in an incubation cabinet at approximately 20° C. and a relative atmospheric humidity of 100%.
The plants are then placed in a greenhouse at approximately 21° C. and a relative atmospheric humidity of approximately 90%.
The test is evaluated 10 days after the inoculation.

[8] = system: Phytophthora infestans; experiment: whole plant or invertebrate; type: in vivo
[9] = system: Alternaria solani; experiment: Alternaria test (tomatoes)/preventive; type: in vivo
[10] = read-out: Efficacy in % found, Table 8c
[11] = read-out: Efficacy in % found, Table 8e
[12] = Phytophthora infestans, 72 h, read-out: Efficacy in % found
[13] = Blumeria graminis, 168 h, Table 6f, 10 ppm a.i., read-out: Efficacy in % found
[14] = Parastagonospora nodorum, 192 h, application rate 10 ppm, wheat, preventive, evaluated 8 days after inoculation, read-out: Efficacy in % found
[15] = read-out: Efficacy in % found, Table 8e, 40 ppm a.i.
[16] = Zymoseptoria tritici, 504 h, application rate 10 ppm a.i., read-out: Efficacy in % found

Cn1cc(C(=O)Nc2ccc(F)cc2-c2ccc(Cl)c(Cl)c2)c(C(F)F)n1 [B2.1, bixafen]
Efficacy in % found ([1]; Table 9a, 40 ppm a.i.): 0%
Efficacy in % found ([1]; application rate 40 ppm, wheat, preventive, evaluated 8 days after inoculation): 0%
Efficacy in % found ([2]; Table 4d, 0.5 ppm a.i.): 67%
Efficacy in % found ([3]; application rate 10 ppm a.i.): 29%
Efficacy in % found ([3]; application rate 40 ppm a.i.): 29%
Efficacy in % found ([4]; Table 8b, 10 ppm a.i.): 14%
Efficacy in % found ([5]; application rate 40 ppm a.i.): 22%

CC(C)CC(C)c1sccc1NC(=O)c1cn(C)nc1C(F)(F)F (centres unmarked) [B2.21, penthiopyrad]
pest or weed control at 20 ppm ([6]; Blumeria graminis, 168 h, Table 6a, 20 ppm a.i., read-out: Efficacy in % found): 20%
pest or weed control at 0.5 ppm ([2]; Podosphaera fuliginea, 168 h, Table 4d, 0.5 ppm a.i., read-out: Efficacy in % found): 0%
pest or weed control at 20 ppm [4, 10]: 13%
pest or weed control at 80 ppm [4, 11]: 0%
pest or weed control at 80 ppm ([5]; Puccinia triticina, 192 h, application rate 80 ppm a.i., read-out: Efficacy in % found): 78%
pest or weed control at 0.5 ppm ([7]; Venturia inaequalis, 240 h, read-out: Efficacy in % found, Table 2d, 0.5 ppm a.i.): 0%

N#Cc1c(Cl)c(Cl)c(Cl)c(C#N)c1Cl [B5.4, chlorothalonil]
pest or weed control at 50 ppm [8, 12]: 75%
pest or weed control at 50 ppm ([9]; Alternaria solani, 72 h, Table 3a, 50 ppm a.i., read-out: Efficacy in % found): 35%
pest or weed control at 12.5 ppm ([7]; Venturia inaequalis, 240 h, read-out: Efficacy in % found, Table 2a, 12.5 ppm a.i.): 35%

Cn1cc(C(=O)Nc2ccccc2-c2cc(F)c(F)c(F)c2)c(C(F)F)n1 [B2.8, fluxapyroxad]
Efficacy in % found ([1]; application rate 10 ppm, wheat, preventive, evaluated 8 days after inoculation): 0%
Efficacy in % found ([2]; Table 4d, 0.5 ppm a.i.): 0%
Efficacy in % found ([3]; application rate 10 ppm a.i.): 0%
Efficacy in % found ([5]; application rate 10 ppm a.i.): 0%
Efficacy in % found ([5]; application rate 40 ppm a.i.): 67%
Efficacy in % found ([7]; Table 2d, 0.25 ppm a.i.): 19%

CCCC1COC(Cn2cncn2)(c2ccc(Cl)cc2Cl)O1 (centres unmarked) [B1.40, propiconazole]
pest or weed control at 20 ppm ([1]; Parastagonospora nodorum, 192 h, application rate 20 ppm, wheat, preventive, evaluated 8 days after inoculation, read-out: Efficacy in % found): 0%
pest or weed control at 2 ppm ([9]; Alternaria solani, 72 h, Table 3c, 2 ppm, read-out: Efficacy in % found): 0%
pest or weed control at 20 ppm ([4]; read-out: Efficacy in % found, Table 8b): 0%

COCC(=O)N(c1c(C)cccc1C)[C@H](C)C(=O)OC [B12.10, mefenoxam]
Efficacy in % found ([6]; Table 6f, 400 ppm a.i.): 25%
Efficacy in % found ([1]; application rate 100 ppm, wheat, preventive, evaluated 8 days after inoculation): 0%

CCO[PH](=O)O [B15.24, fosetyl-Al]
Efficacy in % found ([2]; Table 4a, 50 ppm a.i.): 0%
Efficacy in % found ([2]; Table 4d, 12.5 ppm a.i.): 0%
Efficacy in % found ([9]; Table 3a, 50 ppm a.i.): 40%
Efficacy in % found ([7]; Table 2a, 50 ppm a.i.): 0%

CCN(C)C=Nc1cc(C)c(Oc2nc(Cc3ccc(Cl)cc3)ns2)cc1C [B15.78, N′-(4-{[3-(4-chlorobenzyl)-1,2,4-thiadiazol-5-yl]oxy}-2,5-dimethylphenyl)-N-ethyl-N-methylimidoformamide]
pest or weed control at 62.5 ppm ([5]; Puccinia triticina, 192 h, application rate 62.5 ppm a.i., read-out: Efficacy in % found): 57%
pest or weed control at 5 ppm ([7]; Venturia inaequalis, 240 h, read-out: Efficacy in % found, Table 2f, 5 ppm a.i.): 16%

CC(C)(C)C(O)(CCc1ccc(Cl)cc1)Cn1cncn1 (centres unmarked) [B1.47, tebuconazole]
pest or weed control at 10 ppm [6, 13]: 50%
pest or weed control at 10 ppm ([6]; Blumeria graminis, 168 h, Table 6d, 10 ppm, read-out: Efficacy in % found): 33%
pest or weed control at 10 ppm [1, 14]: 33%
pest or weed control at 40 ppm ([3]; Zymoseptoria tritici, 504 h, application rate 40 ppm a.i., read-out: Efficacy in % found): 71%
pest or weed control at 10 ppm ([4]; read-out: Efficacy in % found, Table 8c, 10 ppm a.i.): 25%
pest or weed control at 40 ppm [4, 15]: 0%
pest or weed control at 4 ppm ([5]; Puccinia triticina, 192 h, application rate 4 ppm a.i., read-out: Efficacy in % found): 33%

Cc1ccc(C(C)C)c(CN(C(=O)c2c(C(F)F)nn(C)c2F)C2CC2)c1 [A12, N-cyclopropyl-3-(difluoromethyl)-5-fluoro-N-(2-isopropyl-5-methylbenzyl)-1-methyl-1H-pyrazole-4-carboxamide]
pest or weed control at 10 ppm [6, 13]: 50%
pest or weed control at 40 ppm ([5]; Puccinia triticina, 192 h, application rate 40 ppm a.i., read-out: Efficacy in % found): 89%

O=C(NCc1ncc(C(F)(F)F)cc1Cl)c1c(Cl)cccc1Cl [B4.6, fluopicolide]
Efficacy in % found ([8]; Table 1a, 1 ppm a.i.): 13%
Efficacy in % found ([6]; Table 6f, 400 ppm a.i.): 13%
Efficacy in % found ([1]; Table 9c, 100 ppm a.i.): 17%

Cn1cc(C(=O)Nc2cccc3c2[C@@H]2CC[C@H]3C2=C(Cl)Cl)c(C(F)F)n1 (racemic) [B2.29, benzovindiflupyr]
Efficacy in % found ([9]; Table 3e, 0.5 ppm): 21%
Efficacy in % found ([4]; Table 8f, 120 ppm a.i.): 25%
Efficacy in % found ([7]; Table 2e, 0.1 ppm a.i.): 76%

N#Cc1ccccc1NC(=O)c1snc(Cl)c1Cl [B6.2, isotianil]
Efficacy in % found ([6]; Table 6b, 100 ppm a.i.): 38%
Efficacy in % found ([9]; Table 3b, 50 ppm): 27%

folpet [B5.16]
Efficacy in % found ([1]; application rate 400 ppm a.i., wheat, preventive, evaluated 8 days after inoculation): 44%
Efficacy in % found ([2]; Table 4a, 25 ppm a.i.): 0%
Efficacy in % found ([9]; Table 3e, 12.5 ppm): 39%
Efficacy in % found ([4]; Table 8f, 200 ppm a.i.): 50%
Efficacy in % found ([7]; Table 2a, 12.5 ppm a.i.): 47%
Efficacy in % found ([7]; Table 2e, 10 ppm a.i.): 45%

propamocarb-HCl [B10.10]
Efficacy in % found ([6]; Table 6c, 400 ppm): 13%
Efficacy in % found ([2]; Table 4a, 50 ppm a.i.): 0%
Efficacy in % found ([2]; Table 4d, 50 ppm a.i.): 70%
Efficacy in % found ([9]; Table 3a, 50 ppm a.i.): 0%
Efficacy in % found ([7]; Table 2a, 50 ppm a.i.): 0%

propineb [B5.29]
Efficacy in % found ([8]; Table 1c, 50 ppm a.i.): 50%
Efficacy in % found ([6]; Table 6c, 400 ppm): 13%
Efficacy in % found ([2]; Table 4a, 50 ppm a.i.): 0%
Efficacy in % found ([2]; Table 4d, 50 ppm a.i.): 70%
Efficacy in % found ([9]; Table 3a, 50 ppm a.i.): 33%
Efficacy in % found ([9]; Table 3d, 50 ppm): 0%

CCCCCCCCc1c(CC)nc2ncnn2c1N [B3.1, ametoctradin]
Efficacy in % found ([8]; Table 1a, 5 ppm a.i.): 48%

Cn1c(=O)c2sc3c(=O)n(C)c(=O)c3sc2c1=O [B15.60, 2,6-dimethyl-1H,5H-[1,4]dithiino[2,3-c:5,6-c′]dipyrrole-1,3,5,7(2H,6H)-tetrone]
pest or weed control at 50 ppm ([9]; Alternaria solani, 72 h, Table 3d, 50 ppm, read-out: Efficacy in % found): 0%

spiroxamine [B1.46]
Efficacy in % found ([1]; Table 9a, 200 ppm a.i.): 29%
Efficacy in % found ([1]; application rate 200 ppm, wheat, preventive, evaluated 8 days after inoculation): 22% and 40%
Efficacy in % found ([2]; Table 4b, 25 ppm a.i.): 0%
Efficacy in % found ([5]; application rate 200 ppm a.i.): 0%

mancozeb [B5.23]
Efficacy in % found ([8]; Table 1c, 50 ppm a.i.): 45%
Efficacy in % found ([6]; Table 6c, 400 ppm): 0%
Efficacy in % found ([1]; Table 9e, 100 ppm a.i.): 0%
Efficacy in % found ([2]; Table 4a, 25 ppm a.i.): 0%
Efficacy in % found ([9]; Table 3a, 50 ppm a.i.): 56%
Efficacy in % found ([9]; Table 3d, 50 ppm): 0%

Fc1ccc([C@]2(Cn3cncn3)O[C@H]2c2ccccc2Cl)cc1 (racemic) [B1.12, epoxiconazole]
pest or weed control at 10 ppm ([1]; Parastagonospora nodorum, 192 h, Table 9a, 10 ppm a.i., read-out: Efficacy in % found): 0%
pest or weed control at 10 ppm [1, 14]: 29%
pest or weed control at 10 ppm [3, 16]: 0%
pest or weed control at 40 ppm [4, 15]: 0%

COC(=O)N(OC)c1ccccc1COc1ccn(-c2ccc(Cl)cc2)n1 [B3.17, pyraclostrobin]
pest or weed control at 1 ppm [8, 12]: 53%
pest or weed control at 40 ppm ([6]; Blumeria graminis, 168 h, Table 6b, 40 ppm a.i., read-out: Efficacy in % found): 20%
pest or weed control at 40 ppm ([1]; Parastagonospora nodorum, 192 h, application rate 40 ppm, wheat, preventive, evaluated 8 days after inoculation, read-out: Efficacy in % found): 57%
pest or weed control at 2 ppm ([2]; Podosphaera fuliginea, 168 h, Table 4d, 2 ppm a.i., read-out: Efficacy in % found): 0%
pest or weed control at 40 ppm ([4]; read-out: Efficacy in % found, Table 8a, 40 ppm): 93%
pest or weed control at 10 ppm ([4]; read-out: Efficacy in % found, Table 8e, 10 ppm a.i.): 57%
pest or weed control at 10 ppm ([4]; read-out: Efficacy in % found, Table 8d, 10 ppm a.i.): 71%
pest or weed control at 1 ppm ([7]; Venturia inaequalis, 240 h, read-out: Efficacy in % found, Table 2b): 79%

CC1(C)CCC(Cc2ccc(Cl)cc2)C1(O)Cn1cncn1 (centres unmarked) [B1.30, metconazole]
pest or weed control at 80 ppm ([1]; Parastagonospora nodorum, 192 h, application rate 80 ppm, wheat, preventive, evaluated 8 days after inoculation, read-out: Efficacy in % found): 44%
pest or weed control at 5 ppm ([2]; Podosphaera fuliginea, 168 h, Table 4d, 5 ppm a.i., read-out: Efficacy in % found): 77%
pest or weed control at 20 ppm [4, 10]: 13%
pest or weed control at 80 ppm [4, 11]: 0%
pest or weed control at 20 ppm ([5]; Puccinia triticina, 192 h, application rate 20 ppm a.i., read-out: Efficacy in % found): 44%
pest or weed control at 1 ppm ([7]; Venturia inaequalis, 240 h, read-out: Efficacy in % found, Table 2c): 38%

CC(C)c1ccc(F)cc1CN(C(=O)c1c(C(F)F)nn(C)c1F)C1CC1 [A7, N-cyclopropyl-3-(difluoromethyl)-5-fluoro-N-(5-fluoro-2-isopropylbenzyl)-1-methyl-1H-pyrazole-4-carboxamide]
pest or weed control at 10 ppm [3, 16]: 71%
